Data from US10300049B2, “Myeloid differentiation inducing agents” (CASE WESTERN RESERVE UNIVERSITY, priority 2007, dated 2019).

Experiments:
[1] = test system: HL-60 cells; assay: NBT reduction assay of differentiation in HL-60 cells; type: cell-based, human; conditions: for NBT (%): 10 days; for NBT reduction, ATRA alone (%) / NBT reduction, Decitabine alone (%): 4 days; for cells differentiated, NBT reduction assay: HL-60 cells, 4 days (FIG. 3)
Source text: The NBT screen works due to changes in the oxidoreductases during differentiation that lead to increases in rates of NBT reduction. NBT is reduced due to the production of superoxide that is catalyzed by an NADPH oxidase. […] A quantitative NBT reduction assay is ideal for this type of screen as it is simple, sensitive, quantitative, requires minimal cells, has been proven to have low well to well variability, and the amount of reduced NBT is proportional to the number of cells reducing the dye as well as the amount reduced by each cell.
(§1) […] […] Differentiation is determined in the 96 well plates by incubating the cells with 1 mg/ml of NBT and 200 ng/ml of PMA as the stimulant for the respiratory burst for 35 minutes at 37° C. The reaction can then be stopped with HCL and the formazan will be solubilized with DMSO. Finally, the reaction mixture will be read spectrophotometricaly at 560 nm in a plate reader.
as §1, with “will” for “can”
The assays are done using the colorimetric process. The NBT reduction assay measures the respiratory burst and is done by stimulating the respiratory burst in cells with PMA and then looking for a color change in the NBT dye.

[2] = test system: GABA A receptor; conditions: compared with securinine; cited from earlier work
[3] = test system: HL-60 cells; assay: Flow cytometry of CD11b and CD14 cell surface markers; type: cell-based, human; conditions: for CD11b positive / CD14 positive: 4 days
Description: HL-60 cells were treated with the indicated compounds for 4 days, the cells were stained with CD11b-PE and CD14-FITC, and flow cytometric analysis was performed.

[4] = test system: HL-60 cells; assay: Morphology, cytospin with Wright-Giemsa stain; type: cell-based, human; conditions: 4 days
Description: HL-60 cells were treated with the indicated compounds for 4 days. Cytospin preparations were prepared and the cells were stained with Wright-Giemsa stain.

[5] = test system: HL-60 cells; assay: Cell cycle, propidium iodide flow cytometry; type: cell-based, human; conditions: 4 days
Description: HL-60 cells were treated with the indicated compounds for 4 days and the cells were stained with propidium iodide and analyzed by flow cytometry.

[6] = test system: HL-60 subcutaneous tumors; assay: Established HL-60 subcutaneous tumor xenograft in nude mice; type: in vivo
Description: Nude mice (5 per experimental group) were injected with 5×10^7 HL-60 cells bilaterally into the flank. 9 days after tumor cell inoculation, the indicated drugs were injected I.P. three times a week for 3 weeks. […] Representative picture of the mice at the end of the study period (B). Representative picture of tumors dissected from the indicated mice. (C). Average weights of tumors dissected from all mice (D).
(§2) In order to further assess the in vivo potential of 6BT and Securinine, mouse xenograft experiments were performed. In the first model, the ability of 6BT and Securinine to inhibit established HL-60 subcutaneous leukemic tumor growth in nude mice was assessed. […] In the second model system, the ability of 6BT to prevent either HL-60 or MV-411 tumor formation in nude mice was assessed.
(§3) This Example assed the effects of securinine and its analogues in mice. […] HL-60 cell is an AML cell line commonly used for in-vitro studies and typically they are classified as M2 subtype. […] Therefore this was the highest dose that could be safely utilized.
Next we repeated the mouse xenograft experiments using i.p. drug administration (20 mg/kg), but with twice a day dosing again using HL-60 cell tumors.
Securinine (20 mg/kg) or vehicle ([…]) was injected i.p. into mice starting 10 days after HL-60 cell inoculation bilaterally into the flanks of nude mice (5 mice per group).

[7] = test system: normal human lymphocytes, normal human bone marrow, mouse embryonic fibroblasts, and human umbilical vein endothelial cells; assay: Toxicity on normal cells; type: cell-based
Source text: In order to further assess the toxicity of 6BT and Securinine, normal human lymphocytes, normal human bone marrow, mouse embryonic fibroblasts, and human umbilical vein endothelial cells were examined.

[8] = test system: primary patient leukemic samples; assay: Differentiation and cell death in other AML cell lines and primary patient leukemic samples; type: cell-based, human
Description: FIGS. 7(A-B) illustrate 6BT and securinine have potent differentiation and cell death effects on primary leukemic samples. Primary patient leukemic samples were stained with CD34+ and sorted by flow cytometry. Leukemic cells were treated with the indicated compounds (6BT […]) for up to 7 days. A. Representative pictures showing morphological differentiation of primary patient samples B. 6BT and Securinine treated primary leukemic cells show either differentiation by NBT reduction or cell death.
In several cases, the compounds were able to induce a higher amount of differentiation than ATRA. It should be noted, that though ATRA is only clinically useful for APL, it is well known to potently induce the differentiation of many other AML cell lines in vitro. […] Though the exact mechanisms are not yet clear, certain leukemic cells appear to preferentially undergo cell death in response to 6BT and Securinine prior to full differentiation.
We then tested the effects of securinine on patient samples. […] Unfortunately, many of the patient samples were not suitable for analysis. A significant portion of the cells that were obtained were either nonviable or contaminated with bacteria.

[9] = Toxicity, tolerability and seizures in mice
Description: as §2, §3
We performed a preliminary test with the two most promising analogues, compound 2A and compound 2B to verify their safety.

[10] = test system: c-myc; assay: c-myc expression by real time PCR in HL-60 cells; type: cell-based, human; conditions: 1, 3, or 5 days
Description: (§4) FIG. 11 illustrates graphs showing securinine and 6BT downregulate c-myc expression and upregulate CEBPB. HL-60 cells were treated with the indicated compounds for 1, 3, or 5 days and total RNA was prepared. The relative expression of c-myc and CEPβ was determined by real time PCR.

[11] = test system: CEBPβ; assay: CEBPβ expression by real time PCR in HL-60 cells; type: cell-based, human; conditions: 1, 3, or 5 days
Description: as §4

[12] = test system: p21; assay: p21 Western blot in HL-60 cells; type: cell-based, human; conditions: 1, 3, or 5 days
Description: (§5) HL-60 cells were treated with the indicated compounds for 1, 3, or 5 days and cells were lysed. Western blot analysis was performed with p21, Bcl-2, and actin antibodies.

[13] = test system: Bcl-2; assay: Bcl-2 Western blot in HL-60 cells; type: cell-based, human; conditions: 1, 3, or 5 days
Description: as §5

[14] = test system: p44/p42 and p38; assay: Phospho-specific Western blot of p44/p42 and p38 in HL-60 cells; type: cell-based, human; conditions: 15 to 60 minutes
Description: FIG. 13 illustrates an immunoblot showing 6BT and Securinine activate both p44/p42 and p38. HL-60 cells were treated with the indicated compounds for 15, 20, 46, or 60 minutes and the cells were lysed. Western blot analysis was performed with phospho-specific antibodies to p44/p42 and p38 as well as the actin anibody.

[15] = test system: p38delta; assay: Gene expression (microarray, real time PCR) in HL-60 cells; type: cell-based, human
Description: FIG. 14 illustrates graphs showing 6BT and securinine regulate the expression of genes that may play important roles in myeloid differentiation. HL-60 cells were treated with the indicated compounds for 1 or 3 days and total RNA was prepared. The relative expression of the indicated genes was assessed by real time PCR.
In order to further assess the signaling pathways of 6BT and securinine as well as to further elucidate the myeloid differentiation program in general, gene microarray studies were performed. These initial studies assessed the gene expression pattern at 16 and 72 hours after treatment. […] Several of these genes are known to be involved in the differentiation of non-hematopoietic cells such as neuron, muscle, and or keratinocyte differentiation. Selected examples of genes whose expression is strongly regulated by securinine and 6BT that have been verified is seen in […].

[16] = test system: OCI-AML3 cells; assay: NBT reduction assay in OCI-AML3 cells; type: cell-based; conditions: 4 days
Description: The two most promising compounds (compound 2A and compound 2B) were further tested for their differentiation activity in several additional AML cell lines as compared to securinine (FIG. 17). […] In all three cell lines tested, a dose of only 2.5 uM of compound 2B was sufficient to induce nearly complete differentiation.
The above indicated cells were treated for 4 days and the NBT reduction assay was performed. The X-axis refers to the cell treatments and the Y-axis denotes the percentage of differentiation as measured by the NBT Reduction assay.

[17] = known; cited from earlier work
[18] = test system: 60 cancer cell lines; conditions: highest concentration used 100 μM; cited from earlier work

O=C1C=C2C=C[C@H]3C[C@]2(O1)[C@@H]1CCCCN13 [Virosecurinine, virosecurinine]
NBT (%) ([1]; 0.06 μM): 20%
NBT (%) ([1]; 1.25 μM): 30%
NBT (%) ([1]; 2.5 μM): 50%
NBT (%) ([1]; 5 μM): 99%
NBT (%) ([1]; 10 μM): 95%
GABA A receptor affinity [2]: decreased GABA A receptor affinity

C=C1/C(=C\C=C2/CCC[C@]3(C)[C@@H]([C@H](C)CCCC(C)(C)O)CC[C@@H]23)C[C@@H](O)C[C@@H]1O [Vitamin D, 1,25-dihydroxyvitamin D3, reference compound]
CD11b positive ([3]; 100 nM): 90%
CD14 positive ([3]; 100 nM): 65%

Cc1cc(O)nc2cc3oc4ccccc4c3cc12 [Compound 375, 4-methyl[1]benzofuro[3,2-g]quinolin-2-ol]
CD11b positive ([3]; 10 μM): 64%
CD14 positive ([3]; 10 μM): 19%
morphologic changes [4]: reproducible, but less pronounced changes
cell cycle phase in which cells accumulate [5]: accumulation in G2/M

CC1=C(/C=C/C(C)=C/C=C/C(C)=C/C(=O)O)C(C)(C)CCC1 [ATRA, all-trans-retinoic acid, reference compound]
NBT reduction, ATRA alone (%) ([1]; ATRA 3 nM): 7%
NBT reduction, ATRA alone (%) ([1]; ATRA 9 nM): 9%
NBT reduction, ATRA alone (%) ([1]; ATRA 26 nM): 16%
NBT reduction, ATRA alone (%) ([1]; ATRA 80 nM): 37%
NBT reduction, ATRA alone (%) ([1]; ATRA 250 nM): 59%
cells differentiated, NBT reduction assay [1]: ~95%
CD11b positive ([3]; 1 μM): 77%
CD14 positive ([3]; 1 μM): 8%
tumor growth compared to vehicle treated mice ([6]; 15 mg/kg twice a day): did not show any difference in tumor growth

Nc1ncn([C@H]2C[C@H](O)[C@@H](CO)O2)c(=O)n1 [Decitabine, reference compound]
NBT reduction, Decitabine alone (%) ([1]; Decitabine 10 ng/ml): 14%
NBT reduction, Decitabine alone (%) ([1]; Decitabine 50 ng/ml): 23%
NBT reduction, Decitabine alone (%) ([1]; Decitabine 100 ng/ml): 26%

O=C1C=C2C=C[C@@H]3C[C@@]2(O1)[C@@H]1CCCCN31 [Allosecurinine, allosecurinine]
NBT (%) ([1]; 0.06 μM): 20%
NBT (%) ([1]; 1.25 μM): 25%
NBT (%) ([1]; 2.5 μM): 40%
NBT (%) ([1]; 5 μM): 50%
NBT (%) ([1]; 10 μM): 80%
GABA A receptor affinity [2]: decreased GABA A receptor affinity

O=C1C=C2C=C[C@@H]3C[C@@]2(O1)[C@H]1CCCCN31 [Securinine]
cells differentiated, NBT reduction assay [1]: ~95%
concentration at which significant differentiation or cell death effects upon the leukemic cells occur ([1]; leukemic cells in our studies): ~10 µM
enhancement of differentiation induced by ATRA and decitabine ([1]; low concentrations, NBT reduction assay): capable of enhancing the differentiation induced by both ATRA and decitabine
CD11b positive ([3]; 10 μM): 87%
CD14 positive ([3]; 10 μM): 86%
synergy in upregulation of CD11b ([3]; with ATRA and decitabine, data not shown): synergize in the upregulation of CD11b
morphologic changes [4]: clear morphologic changes suggestive of monocytic differentiation
cell cycle phase in which cells accumulate [5]: accumulation of cells in G0/G1
toxicity on normal cells [7]: induced cell death occurred at doses higher than those required for activity on leukemia cells
cell death of specific leukemic cell lines and primary patient samples [8]: quicly undergo cell death
differentiation of other AML cell lines and primary patient leukemic samples ([8]; 6BT 10 mM, Securinine 15 mM, up to 7 days (FIG. 7)): effective in differentiating other AML cell lines besides HL-60 cells, as well as primary patient leukemic samples
leukemia patient samples in which differentiation was induced ([8]; samples suitable for analysis): 8 of 10
average tumor size smaller than vehicle treated mice at end of study ([6]; 20 mg/kg i.p. twice a day): more than 75%
effect on growth of HL-60 subcutaneous tumors ([6]; 20 mg/kg once a day): could not detect any significant effects
inhibition of established HL-60 subcutaneous leukemic tumor growth ([6]; first model, I.P. three times a week for 3 weeks from day 9): not Securinine was found to have significant in vivo activity
toxicity in mice ([9]; 20 mg/kg): no evident toxicities
seizures in mice ([9]; dose approximately two fold higher than 20 mg/kg): lead to seizures
c-myc expression [10]: potently downregulate c-myc
CEBPβ expression [11]: time-dependent upregulation of CEBPβ
p21 protein level [12]: upregulated
Bcl-2 protein level [13]: downregulation of Bcl-2
phosphorylation of p44/p42 and p38 [14]: rapid phosphorylation of p44/p42 and p38
p38delta expression [15]: upregulated
differentiation activity in OCI-AML3 cells [16]: modest differentiation activity
metabolism in vivo [17]: extremely rapid metabolism in vivo
seizures [17]: lead to seizures
average LD50 across the 60 cancer cell lines [18]: 97 µM
